Results taken from patent US8193378B2, “2H-chromene compound and derivative thereof” (Astellas Pharma Inc., priority 2008, dated 2012).
pEC50: −log10 of the molar value. Like-named read-outs stand apart in the source and are kept apart here.

Assays:
human S1P1 [1] = target: T1, human S1P1 (Homo sapiens, UniProt P21453); assay: GTP[γ-35S] binding assay using membrane of human S1P1 expressing cell (Test Example 1, Method 1); format: biochemical; conditions: method 1, GTP[γ-35S] binding, membrane of human S1P1 expressing CHO cell (values without *); read-out: A: EC50, in vitro S1P1 agonist action
T1 construct: expressed in transfected cells; membrane fraction used
T1 sequence (P21453 whole entry): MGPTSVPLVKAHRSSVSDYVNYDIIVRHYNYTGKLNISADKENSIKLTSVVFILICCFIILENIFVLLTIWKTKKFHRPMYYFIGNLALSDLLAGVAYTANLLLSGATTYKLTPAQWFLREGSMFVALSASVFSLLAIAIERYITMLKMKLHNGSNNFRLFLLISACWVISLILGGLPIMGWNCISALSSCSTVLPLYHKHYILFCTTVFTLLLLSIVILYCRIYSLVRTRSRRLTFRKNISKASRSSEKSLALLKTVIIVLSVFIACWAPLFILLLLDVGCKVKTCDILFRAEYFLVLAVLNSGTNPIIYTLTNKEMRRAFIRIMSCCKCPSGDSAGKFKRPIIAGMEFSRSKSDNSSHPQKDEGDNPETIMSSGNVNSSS
Experimental: (§1) Evaluation of In Vitro S1P1 Receptor Agonist Activity in Biological Body
(Method 1) Method for Evaluation on Receptor Agonist Action by GTP[γ-^35S] Binding Assay Using Membrane of Human S1P1 Expressing Cell
The in vitro S1P1 agonist action of the compound of the present invention was evaluated by the increase in the functional binding activity of GTP[γ-^35S] to G-protein using the membrane of a human S1P1 expressing cell. A cDNA encoding a human S1P1 was cloned from a human colorectal cDNA library and introduced to an expression vector pcDNA3.1 to construct a S1P1-pcDNA3.1. Then, by Lipofectamine 2000 (GIBCO), the S1P1-pcDNA3.1 was transfected into a CHO cell, and cultured in a Ham's F-12 culture medium containing 10% fetal bovine serum, 100 U/mL penicillin, 100 μg/mL streptomycin, and 1 mg/mL G418 disulfate, to obtain a stable, G418-resistant strain. The cultured human S1P1 expressing cells were isolated in a 1 mM EDTA.2Na-containing PBS, and disrupted under ice-cooling by a homogenizer made of glass in a 1 mM Tris HCl (pH 7.4) buffer solution containing 0.1 mM EDTA and a protein inhibitor. It was centrifuged at […], and a supernatant was further centrifuged at 4° C. for 60 min at 100,000×g, and suspended in a 10 mM Tris HCl (pH 7.4) buffer solution containing 1 mM EDTA to purify the membrane. The obtained membrane (0.13 mg/mL) and […] GTP[γ-^35S] […] The filter plate was dried at 50° C. for 60 min, and Microscinti-o (Packard) was added thereto for measurement by a liquids scintillation counter for a microplate (Packard, TOP count). For evaluation of the human S1P1 agonist action of the compound of the present invention and the comparative compound, the percentages with the rate of a maximum reaction to make the GTP[γ-^35S] bonds saturated in the presence of the compound being set at 100%, and the rate of the reaction of the GTP[γ-^35S] bonds in the absence of the compound being set at 0% were used, a non-linear regression curve was plotted, and a concentration to cause an agonist action operating 50% of the maximum reaction was defined as an EC50 value (nM).

[2] = tested on: peripheral blood lymphocytes; assay: Reduction of number of peripheral blood lymphocytes in rat (Test Example 2); format: in vivo; conditions: Lymphocyte, male Lewis rats, oral
Experimental: Evaluation of Reduction of Number of Peripheral Blood Lymphocytes in Rat
The action on the peripheral blood lymphocytes were evaluated using rats. 6- to 10-week-old male Lewis rats (Japan Charles River Laboratories Japan, Inc.) were randomly divided into groups (n=3), and the compound of the present invention was suspended in 0.5% methyl cellulose-containing distilled water, and orally administered with a sonde. At 4 hours or 24 hours after administration, 0.2 ml of blood was collected from the ocular fundus under ether anesthesia. To the blood sample were immediately added EDTA.4K and heparin to prevent clotting, and the number of the lymphocytes in blood was measured with an automatic hematocyte analyzer (Sysmex Corp.; XT-2000i). For the reduction of the number of the lymphocytes in peripheral blood by the compound of the present invention, the percentage with the number of the lymphocytes in groups administered with 0.5% methyl cellulose-containing distilled water being set at 100%, as performed at the same time, were used, and the dose to cause 50% reduction of the number of the lymphocytes in the peripheral blood by administration of the compound of the present invention was defined as an ED50 value (mg/kg).

human S1P1 [3] = target: T1, human S1P1; assay: Ca2+ influx assay using human S1P1 expressing cell (Test Example 1, Method 2); format: cell-based; conditions: method 2, Ca2+ influx, human S1P1 expressing CHO cell (values with *); read-out: A: EC50, in vitro S1P1 agonist action (value with *)
Experimental: as §1
(Method 2) Method for Evaluation of Receptor Agonist Action by Ca^2+ Influx Assay Using Human S1P1 Expressing Cell
The in vitro S1P1 agonist action of the compound of the present invention was evaluated by the increase in the Ca^2+ concentration in a human S1P1 expressing cell. A cDNA encoding a human S1P1 was cloned from a human colorectal cDNA library and introduced to an expression vector pcDNA3.1 to construct a S1P1-pcDNA3.1. Then, by Lipofectamine 2000 (GIBCO), the S1P1-pcDNA3.1 was transfected into a CHO cell, and cultured in a Ham's F-12 culture medium containing 10% fetal bovine serum, 100 U/mL penicillin, 100 μg/mL streptomycin, and 1 mg/mL G418 disulfate, to obtain a stable, G418-resistant strain. The cultured human S1P1 expressing cells were isolated in a 1 mM EDTA.2Na-containing PBS and suspended in a Ham's F-12 culture medium containing 10% fetal bovine serum, 100 U/mL penicillin, and 100 μg/mL streptomycin. This cell suspension was dispensed to a 96-well plate at 50000 cells/well, and cultured at a CO2 incubator (5% CO2, 37° C.) overnight. The culture medium was replaced with a calcium-sensitive fluorescent reagent (FLIPR (registered trademark) calcium 3 assay kit, molecular device)-containing loading buffer (Hank's balance salt solution, 20 mM HEPES, 2.5 mM probenecid) and left stand at a CO2 incubator (5% CO2, 37° C.) for 1 hour. The plate was set at a Functional Drug Screening System FDSS6000 (Hamamatsu Photonics K. K.), and persistently measured 124 times every 1.02 second at an excitation wavelength of 480 nm. The test compound (final concentration 10^−12 to 10^−5 M) was added at the same time as the 12th measurement, and the change in the Ca^2+ concentration in cells was evaluated by the change in the fluorescent strength. For evaluation of the human S1P1 agonist action of the compound of the present invention and the comparative compound, the percentages with the rate of a maximum reaction to make the increase in the Ca^2+ concentration in cells saturated after the addition of the compound being set at 100% and the rate of the increase in the Ca^2+ concentration in cells by the addition of a vehicle alone being set at 0% were used, a non-linear regression curve was plotted, and a concentration to cause an agonist action operating 50% of the maximum reaction was defined as an EC50 value (nM).

[4] = 4 hours after administration, read-out: B: ED50 4 h, reduction of number of lymphocytes in peripheral blood
[5] = 24 hours after administration, read-out: B: ED50 24 h, reduction of number of lymphocytes in peripheral blood

SMILES	pEC50 (human S1P1 [1])	ED50 [2, 4] [mg/kg]	ED50 [2, 5] [mg/kg]	pEC50 (human S1P1 [3])
CS(=O)(=O)NC(=O)C1CCN(CC2=Cc3c(F)cc(OCc4ccc(C(F)(F)F)cc4C(F)(F)F)cc3OC2)C1.Cl (stereo not shown) [Ex 1, 1-[(7-{[2,4-bis(trifluoromethyl)benzyl]oxy}-5-fluoro-2H-chromen-3-yl)methyl]-N-(methylsulfonyl)pyrrolidine-3-carboxamide hydrochloride]	8.77	0.016	–	–
O=C(O)C1CN(CC2=C(Cl)c3ccc(OCc4ccc(C(F)(F)F)cc4C(F)(F)F)cc3OC2)C1 [Ex 25]	8.77	0.013	–	–
CCCc1ccc(COc2ccc3c(c2)OCC(CN2CCC(C(=O)O)C2)=C3)c(OC)c1 (stereo not shown) [Ex 31]	8.92	0.065	–	–
O=C(O)C1CN(CC2=Cc3c(F)cc(OCc4ccc(C(F)(F)F)cc4C(F)(F)F)cc3OC2)C1 [Ex 34]	8.70	0.01	–	–
O=C(O)C1CN(CC2=Cc3ccc(OCc4cc(-c5ccccc5)c(Br)s4)cc3OC2)C1 [Ex 43]	8.21	0.26	–	–
Cl.O=C(O)C1CCN(CC2=Cc3ccc(OCc4ccc(C(F)(F)F)cc4C(F)(F)F)cc3OC2)C1 (stereo not shown) [Ex 44]	8.43	0.37	–	–
Cl.O=C(O)C1CCN(CC2=Cc3c(F)cc(OCc4ccc(C(F)(F)F)cc4C(F)(F)F)cc3OC2)C1 (stereo not shown) [Ex 45]	8.82	0.1	–	–
CCc1sc(COc2cc(F)c3c(c2)OCC(CN2CCC(C(=O)O)C2)=C3)cc1-c1ccccc1 (stereo not shown) [Ex 56]	8.64	0.067	–	–
O=C(O)C1CCN(CC2=Cc3c(F)cc(OCc4ccc(-c5ccccc5)c(C(F)(F)F)c4)cc3OC2)C1 (stereo not shown) [Ex 62]	8.60	0.21	–	–
CC1(C(=O)O)CCN(CC2=Cc3c(F)cc(OCc4cc(-c5ccccc5)c(C(F)(F)F)s4)cc3OC2)C1 (stereo not shown) [Ex 66]	8.00	0.21	–	–
CC1CN(CC2=Cc3c(F)cc(OCc4cc(-c5ccccc5)c(C(F)(F)F)s4)cc3OC2)CC1C(=O)O (stereo not shown) [Ex 69]	8.20	0.087	–	–
O=C(O)C1(F)CCN(CC2=Cc3c(F)cc(OCc4cc(-c5ccccc5)c(C(F)(F)F)s4)cc3OC2)C1 (stereo not shown) [Ex 74]	8.25	0.59	–	–
CC1(C(=O)O)CN(CC2=Cc3c(F)cc(OCc4cc(-c5ccccc5)c(C(F)(F)F)s4)cc3OC2)C1 [Ex 81]	8.34	0.25	–	–
O=C(O)C1=CCCN(CC2=Cc3c(F)cc(OCc4ccc(C(F)(F)F)cc4C(F)(F)F)cc3OC2)C1 [Ex 85]	7.96	0.19	–	–
CC1(C(=O)O)CCN(CC2=Cc3c(F)cc(OCc4ccc(-n5cccc5)c(C(F)(F)F)c4)cc3OC2)C1 (stereo not shown) [Ex 89]	8.21	0.16	–	–
O=C(O)[C@H]1CCN(CC2=Cc3c(F)cc(OCc4ccc(-n5cccc5)c(C(F)(F)F)c4)cc3OC2)C1 [Ex 109]	8.27	0.26	–	–
CC1(C(=O)O)CN(CC2=Cc3ccc(OCc4ccc(-n5cccc5)c(C(F)(F)F)c4)cc3OC2)C1 [Ex 116]	8.07	0.1	–	–

SMILES	pEC50 (human S1P1 [1])	ED50 [2, 4] [mg/kg]	ED50 [2, 5] [mg/kg]	pEC50 (human S1P1 [3])
Cl.O=C(O)C1CN(CC2=Cc3ccc(C#CCCc4ccccc4)cc3OC2)C1 [Ex 132]	7.66	0.16	–	–
Cc1c(OCc2ccc(C(F)(F)F)cc2C(F)(F)F)ccc2c1OCC(CN1CCC(C(=O)O)C1)=C2.Cl (stereo not shown) [Ex 137]	8.03	0.11	–	–
C[C@H](Oc1ccc(COc2cc(F)c3c(c2)OCC(CN2CCC=C(C(=O)O)C2)=C3)cc1C(F)(F)F)C(F)(F)F.Cl [Ex 141]	8.23	0.099	–	–
Cl.O=C(O)C1=CCCN(CC2=Cc3c(F)cc(OCc4ccc(OC(CF)CF)c(Cl)c4)cc3OC2)C1 [Ex 143]	–	0.32	–	–
C[C@H](Oc1ccc(COc2cc(F)c3c(c2)OCC(CN2CCC=C(C(=O)O)C2)=C3)cc1Cl)C(F)(F)F.Cl [Ex 144]	–	0.16	–	–
C[C@H](Oc1ccc(COc2ccc3c(c2)OCC(CN2CCC=C(C(=O)O)C2)=C3)cc1Cl)C(F)(F)F.Cl [Ex 149]	8.06	–	0.12	–
CC(C)Oc1ccc(COc2ccc3c(c2)OCC(CN2CCC=C(C(=O)O)C2)=C3)cc1Cl.Cl [Ex 151]	–	–	0.35	8.96
CS(=O)(=O)NC(=O)[C@@H]1CCCN(CC2=Cc3c(F)cc(OCc4ccc(OC(CF)CF)c(C(F)(F)F)c4)cc3OC2)C1.Cl [Ex 152]	–	–	0.28	8.20
C[C@H](Oc1ccc(COc2ccc3c(c2)OCC(CN2CCC[C@@H](C(=O)O)C2)=C3)cc1C(F)(F)F)C(F)(F)F.Cl [Ex 156, (3R)-1-[(7-{[3-(trifluoromethyl)-4-{[(2S)-1,1,1-trifluoropropan-2-yl]oxy}benzyl]oxy}-2H-chromen-3-yl)methyl]piperidine-3-carboxylic acid hydrochloride]	–	–	0.086	7.80
Cl.O=C(O)[C@@H]1CCCN(CC2=Cc3ccc(OCc4ccc(OCC(F)(F)F)c(C(F)(F)F)c4)cc3OC2)C1 [Ex 160]	–	–	0.26	8.66
Cl.O=C(O)C1CCN(CC2=Cc3ccc(OCc4ccc(OCC(F)(F)F)c(C(F)(F)F)c4)cc3OC2)CC1 [Ex 171]	–	–	0.14	8.05
CC(C)Oc1ccc(COc2ccc3c(c2)OCC(CN2CCC=C(C(=O)O)C2)=C3)cc1C(F)(F)F.Cl [Ex 178]	7.26	–	0.12	–
Cl.O=C(O)C1=CCN(CC2=Cc3ccc(OCc4ccc(OC(CF)CF)c(Cl)c4)cc3OC2)CC1 [Ex 181]	–	–	0.29	9.17
C[C@H](Oc1ncc(COc2ccc3c(c2)OCC(CN2CCC=C(C(=O)O)C2)=C3)cc1Cl)C(F)(F)F.Cl [Ex 183]	–	–	0.21	8.26
Cl.O=C(O)[C@@H]1CCCN(CC2=Cc3c(F)cc(OCc4ccc(OC(CF)CF)c(C(F)(F)F)c4)cc3OC2)C1 [Ex 212]	–	–	0.21	8.96
Cl.O=C(O)C1=CCCN(CC2=Cc3ccc(OCc4ccc(C5CCCC5)c(C(F)(F)F)c4)cc3OC2)C1 [Ex 216]	–	–	0.25	8.11
